Molecular target: T1, quinol:fumarate reductase (QFR), site in subunit A (FAD-binding protein) (Megalodesulfovibrio gigas, UniProt T2GB49)
T1 construct: gene fdrA; native, purified from D. gigas membranes in DDM; A2B2C2 homo-dimer; subunit A 627 residues (1-622 built), B 264, C 218; with Fumarate reductase iron-sulfur subunit; Fumarate reductase cytochrome b subunit
T1 sequence (T2GB49 1-627): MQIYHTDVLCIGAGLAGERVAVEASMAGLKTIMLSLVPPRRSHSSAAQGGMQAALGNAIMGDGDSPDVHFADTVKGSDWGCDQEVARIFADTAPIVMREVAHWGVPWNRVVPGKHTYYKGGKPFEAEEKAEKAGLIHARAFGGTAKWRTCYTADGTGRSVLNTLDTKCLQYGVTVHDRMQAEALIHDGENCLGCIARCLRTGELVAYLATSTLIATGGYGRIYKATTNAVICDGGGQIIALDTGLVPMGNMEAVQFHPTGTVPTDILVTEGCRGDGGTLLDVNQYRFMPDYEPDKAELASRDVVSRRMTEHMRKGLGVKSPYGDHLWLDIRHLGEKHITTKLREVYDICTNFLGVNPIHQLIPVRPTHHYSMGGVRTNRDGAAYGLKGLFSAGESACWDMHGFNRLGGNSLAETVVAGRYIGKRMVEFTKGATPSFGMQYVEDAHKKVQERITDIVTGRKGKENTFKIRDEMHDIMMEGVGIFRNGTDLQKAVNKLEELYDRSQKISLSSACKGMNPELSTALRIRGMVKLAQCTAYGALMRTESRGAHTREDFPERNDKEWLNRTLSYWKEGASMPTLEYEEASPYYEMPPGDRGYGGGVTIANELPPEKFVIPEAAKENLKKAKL
T1 sequence (T2G9X8 1-264 partner): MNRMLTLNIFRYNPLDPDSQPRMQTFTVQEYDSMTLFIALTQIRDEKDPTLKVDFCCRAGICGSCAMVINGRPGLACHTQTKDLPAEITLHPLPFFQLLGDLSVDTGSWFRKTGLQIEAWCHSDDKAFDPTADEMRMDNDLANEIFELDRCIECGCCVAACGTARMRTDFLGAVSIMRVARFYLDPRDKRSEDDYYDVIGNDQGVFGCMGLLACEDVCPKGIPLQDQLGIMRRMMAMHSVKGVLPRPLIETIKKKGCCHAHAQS
T1 sequence (T2GAT5 1-218 partner): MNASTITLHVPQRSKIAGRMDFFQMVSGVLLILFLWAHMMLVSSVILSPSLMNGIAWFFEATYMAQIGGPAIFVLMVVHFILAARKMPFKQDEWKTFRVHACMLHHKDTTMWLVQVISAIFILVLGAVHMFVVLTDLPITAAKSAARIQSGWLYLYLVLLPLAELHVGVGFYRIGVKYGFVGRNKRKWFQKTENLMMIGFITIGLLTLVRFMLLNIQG
Experiment: X-ray crystal structure, […] Å
Conditions: crystals at pH 8.5

O=C(O)/C=C/C(=O)O [fumarate]
X-ray crystal structure, 3.6 Å (fumarate site near the FAD in subunit A): A fumarate molecule is also observed near the FAD in the A subunit

Cc1cc2nc3c(=O)[nH]c(=O)nc-3n(C[C@H](O)[C@H](O)[C@H](O)COP(=O)(O)OP(=O)(O)OC[C@H]3O[C@@H](n4cnc5c(N)ncnc54)[C@H](O)[C@@H]3O)c2cc1C [FAD, flavin adenine dinucleotide]
X-ray crystal structure, 3.6 Å (covalent, C8M methyl of flavin to His-A43): FAD binds to the FAD-binding domain through a covalent bond with residue His-A43
